“Also recorded” adds a separate entry of the source.
Columns and labels:
rap1-CRISPR embryos = assay: Jaw defect (MK-CH distance) in rap1-CRISPR embryos; format: in vivo, zebrafish; conditions: rap1 F0 CRISPR mutant, 100 nM, 5 dpf
Description: (§1) FIG. 4: Compound 8 ameliorates the CE and jaw defects caused by loss of rap/and kdm6a. (a) gRNA targeting both zebrafish rap1a and rap1b were injected into embryos at the 1-cell stage with Cas9 protein. Larvae were incubated with compound 8 (100 nM) at the 8-cell stage and scored for micrognathia. 5 dpf larvae were stained with Alcian blue to assess the layout of the jaw cartilage. In comparison to control embryos (top), rap1-CRISPR embryos have smaller jaws. […] (b) Quantitative measurement of the distance between MK and CH cartilages. (c) Larvae were scored for CE (n>30 for each concentration). (d) 5 dpf embryos were stained with Alcian blue to assess the layout of jaw cartilage. […] (e) Quantitative measurement of the distance between MK and CH cartilages. *p<0.05; ***p<0.001. […]
(§2) For convergence and extension (CE) phenotyping, embryos were scored as described (see, Leitch, C. C. et al. Nat Genet 40, 443-8 (2008)) at the 8-10 somite stage, and images were captured using an AZ100 microscope and NIS Elements software (Nikon). […] The distance between Meckel's (MK) and ceratohyal (CH) cartilages was measured on ventral bright field images with Image J (NIH). […] Fluorescence signal on embryo heads was imaged with the Nikon AZ100 microscope and DS-Qi1MC digital camera using […] Z-stacks to generate extended depth of focus images. Cell numbers were quantified using the ImageJ ICTN plugin (NIH). […]

kdm6a-MO embryos = assay: Jaw defect (MK-CH distance) in kdm6a-MO embryos; format: in vivo, zebrafish; conditions: kdm6a morphant, 5 dpf
Description: as §1, §2

[1] = Mass spectrometry of compound exposure in zebrafish embryos; format: in vivo; conditions: for detection of compound in embryos by MS: bathing, 100 nM or 1 μM, five days
Description: FIG. 5: Successful delivery of small molecules into zebrafish embryos. (a) Experimental design and sample preparation for the mass spectrometry (MS) analysis of compound concentration. (b) Quantitative MS analysis results of compound exposure in embryos. The right-most two columns give the concentrations of each compound detected by MS in zebrafish, quantifying in vivo exposures resulting from egg water compound doses of 100 nM and 1 μM.
For this purpose, mass spectrometry (MS) was performed in embryos treated with each of compounds 2 and 8. Wild-type embryos were treated with 100 nM (the concentration used for the rescue experiments) or 1 μM (as a positive detection threshold given that the intracellular concentration of each compound is unknown at the beginning of the experiment). After five days of treatment, embryos were harvested and subjected to MS analysis (FIG. 5A).
WT EK embryos were transferred to a 12-well plate at the 8-cell stage and bathed in egg water containing 0.001% DMSO or 100 nM of each compound (n=30/condition). Embryos were incubated at 28° C.; egg water containing compound was refreshed every 24 hours until harvest. Compound exposure was assessed essentially as described (see, Berghmans, S. et al. J Pharmacol Toxicol Methods 58, 59-68 (2008)); larvae were anaesthetized on ice, washed once with fresh compound-free ice-cold egg water, washed once with ice-cold PBS, and then transferred to a microfuge tube and centrifuged briefly before removing all excess liquid. Samples were macerated using a plastic pestle and frozen at −20° C. prior to analysis. Mass spectrometry analysis was conducted at Covance Laboratories (Cary, N.C., USA). Briefly, the macerated larvae were diluted in 1 ml water/acetonitrile (50/50), sonicated for 3×10 s and vortexed. For all compounds, a control sample containing embryos exposed to 0.001% DMSO was analyzed as a control. Calibration curves were generated by spiking aliquots of control zebrafish homogenate (prepared as described above) with known amounts of compound 29 (N3521-4-2).

Row | SMILES | jaw length / MK-CH distance (rap1-CRISPR embryos) | jaw length / MK-CH distance (kdm6a-MO embryos) | detection of compound in embryos by MS [1] | exposure of inhibitor in embryos (MS quantitation) ([1]; 100 nM dose) | concentration at 5 days ([1]; EK (wild-type), zebrafish, whole embryo/larva homogenate, other: bathing in egg water containing compound, egg water dose 100 nM, read-out: effective in vivo exposure (MS))
1 | CC[C@@H](CO)Nc1ncc(C)c(-c2c[nH]c(C(=O)N[C@H](CO)c3cccc(Cl)c3)c2)n1 [Compound 2, N-((S)-1-(3-chlorophenyl)-2-hydroxyethyl)-4-(2-(((S)-1-hydroxybutan-2-yl)amino)-5-methylpyrimidin-4-yl)-1H-pyrrole-2-carboxamide] | can be ameliorated; also recorded: restored significantly the jaw length of morphants and mutants to nearly wild type levels | restored significantly the jaw length of morphants and mutants to nearly wild type levels | Detectable concentrations |  | 
2 | CC(C)c1nc(-c2cccc(NS(=O)(=O)c3c(F)cccc3F)c2F)c(-c2ccnc(N)n2)s1 [Compound 8, desmethyl-Dabrafenib] | can be ameliorated; also recorded: restored significantly the jaw length of morphants and mutants to nearly wild type levels | can be ameliorated; also recorded: restored significantly the jaw length of morphants and mutants to nearly wild type levels | Detectable concentrations | sub-nanomolar | 0.26 nM

Source: patent US20210196714A1, “COMPOSITIONS AND METHODS FOR TREATING DISORDERS CHARACTERIZED WITH ABERRANT RAS/MAPK SIGNALING” (Duke University, priority 2018, published 2021)
